Drawing on patent publication US12559492B2, “BRAF degraders” (C4 Therapeutics, Inc., priority 2020, dated 2026), this text covers DC50 and Emax for 7 compounds.

The assay addresses BRAF^V600E protein (Homo sapiens, UniProt P15056, V600E). Description: HiBiT cellular BRAF V600E degradation assay. The format is cell-based. Conditions: 24 h incubation; for DC50: A375.10 cells (HiBiT tag knocked in at N-terminal of BRAF V600E), concentration at which 50% of total cellular BRAF V600E is degraded; for Emax: A375.10 cells, Emax = amount of residual protein remaining in the cell after compound treatment, read-out: HiBit 24 h Emax. For orientation: HiBiT is a short tag that completes a luciferase, so light tracks the accessible tagged protein.

Sequence of BRAF^V600E protein (P15056 whole entry V600E): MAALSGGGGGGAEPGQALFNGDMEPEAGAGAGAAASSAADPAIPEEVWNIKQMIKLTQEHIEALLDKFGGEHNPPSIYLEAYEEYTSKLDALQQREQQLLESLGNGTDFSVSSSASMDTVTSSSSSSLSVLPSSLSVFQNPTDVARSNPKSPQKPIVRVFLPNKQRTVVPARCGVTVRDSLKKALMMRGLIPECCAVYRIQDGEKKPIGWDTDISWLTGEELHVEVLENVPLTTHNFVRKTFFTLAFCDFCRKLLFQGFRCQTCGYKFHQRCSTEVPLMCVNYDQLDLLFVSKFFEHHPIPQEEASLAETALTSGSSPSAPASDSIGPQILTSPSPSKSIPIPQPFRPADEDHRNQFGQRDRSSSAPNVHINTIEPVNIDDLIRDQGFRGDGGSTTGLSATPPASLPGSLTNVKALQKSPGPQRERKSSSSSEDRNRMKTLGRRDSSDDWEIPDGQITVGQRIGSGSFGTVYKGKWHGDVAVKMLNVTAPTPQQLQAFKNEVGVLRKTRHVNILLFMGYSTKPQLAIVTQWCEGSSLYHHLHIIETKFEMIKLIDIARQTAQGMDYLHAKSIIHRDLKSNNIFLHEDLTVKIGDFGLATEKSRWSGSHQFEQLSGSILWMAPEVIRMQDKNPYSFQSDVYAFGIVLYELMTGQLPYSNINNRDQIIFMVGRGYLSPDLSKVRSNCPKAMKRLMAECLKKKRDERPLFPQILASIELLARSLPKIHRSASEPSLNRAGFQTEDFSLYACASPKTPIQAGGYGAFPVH

By DC50 is commonly meant the concentration giving 50% degradation. The Emax is the greatest response seen or fitted, relative to the assay's reference. `CCN(C)S(=O)(=O)Nc1ccc(F)c(C(=O)c2c[nH]c3ncc(-c4ccc(N5CCN(C(=O)CN6CCC(n7cc(NC8CCC(=O)NC8=O)cn7)CC6)CC5)cc4)cc23)c1F` (centres unmarked) [Example A80, 5-[4-[4-[2-[4-[4-[(2,6-Dioxopiperidin-3-yl)amino]pyrazol-1-yl]piperidin-1-yl]acetyl]piperazin-1-yl]phenyl]-3-[3-[[ethyl(methyl)sulfamoyl]amino]-2,6-difluorobenzoyl]-1H-pyrrolo[2,3-b]pyridine]: the DC50 worked out at 27.5 nM and the Emax amounted to 21.6%.
On the same counts, the results for `CCN(C)S(=O)(=O)Nc1ccc(F)c(C(=O)c2c[nH]c3ncc(-c4ccc(N5CCN(C(=O)CCCN6CCC(c7ccc(C8CCC(=O)NC8=O)cc7)CC6)CC5)nc4)cc23)c1F` (centres unmarked) [Example A81, 5-[6-[4-[4-[4-[4-(2,6-Dioxopiperidin-3-yl)phenyl]piperidin-1-yl]butanoyl]piperazin-1-yl]pyridin-3-yl]-3-[3-[[ethyl(methyl)sulfamoyl]amino]-2,6-difluorobenzoyl]-1H-pyrrolo[2,3-b]pyridine] are 49 nM and 13%.
As for `CCN(C)S(=O)(=O)Nc1ccc(F)c(C(=O)c2c[nH]c3ncc(-c4ccc(N5CCN(C(=O)CN6CCC(c7ccc(C8CCC(=O)NC8=O)cc7)CC6)CC5)nc4)cc23)c1F` (centres unmarked) [Example A82, 5-[6-[4-[2-[4-[4-(2,6-Dioxopiperidin-3-yl)phenyl]piperidin-1-yl]acetyl]piperazin-1-yl]pyridin-3-yl]-3-[3-[[ethyl(methyl)sulfamoyl]amino]-2,6-difluorobenzoyl]-1H-pyrrolo[2,3-b]pyridine], half-maximal degradation (DC50) was put at 7.65 nM and the Emax turned out to be 9.6%.
In the case of `CCN(C)S(=O)(=O)Nc1ccc(F)c(C(=O)c2c[nH]c3ncc(C#Cc4ccc(C(=O)N5CCC(N6CCC(c7ccc(NC8CCC(=O)NC8=O)cc7)CC6)CC5)cc4)cc23)c1F` (centres unmarked) [Example A83, 5-[2-[4-[4-[4-[4-[(2,6-Dioxopiperidin-3-yl)amino]phenyl]piperidin-1-yl]piperidine-1-carbonyl]phenyl]ethynyl]-3-[3-[[ethyl(methyl)sulfamoyl]amino]-2,6-difluorobenzoyl]-1H-pyrrolo[2,3-b]pyridine], it took 6.97 nM to reach half-maximal degradation (DC50) and the Emax amounted to 8.89%.
As for `O=C1CCC(c2ccc(C3CCN(CC(=O)N4CCN(c5ccc(-c6cnc7[nH]cc(C(=O)c8c(F)ccc(NS(=O)(=O)N9CCCC9)c8F)c7c6)cc5)CC4)CC3)cc2)C(=O)N1` (centres unmarked) [Example A85, N-[3-[5-[4-[4-[2-[4-[4-(2,6-Dioxopiperidin-3-yl)phenyl]piperidin-1-yl]acetyl]piperazin-1-yl]phenyl]-1H-pyrrolo[2,3-b]pyridine-3-carbonyl]-2,4-difluorophenyl]pyrrolidine-1-sulfonamide], the DC50 was 16 nM and the Emax amounted to 11%.
On the same counts, the results for `CCN(C)S(=O)(=O)Nc1ccc(F)c(C(=O)c2c[nH]c3ncc(C#Cc4ccc(C(=O)NCCN5CCC(c6ccc(NC7CCC(=O)NC7=O)cc6)CC5)cc4)cc23)c1F` (centres unmarked) [Example A86, N-[2-[4-[4-[(2,6-Dioxopiperidin-3-yl)amino]phenyl]piperidin-1-yl]ethyl]-4-[2-[3-[3-[[ethyl(methyl)sulfamoyl]amino]-2,6-difluorobenzoyl]-1H-pyrrolo[2,3-b]pyridin-5-yl]ethynyl]benzamide] are 32 nM and 23%.
On the same counts, the results for `CCN(C)S(=O)(=O)Nc1ccc(F)c(C(=O)c2c[nH]c3ncc(-c4cnc(N5CCN(C(=O)CN6CCC(c7ccc(NC89CC(C8)C(=O)NC9=O)cc7)CC6)CC5)nc4)cc23)c1F` [Example A87, 5-[2-[4-[2-[4-[4-[(2,4-Dioxo-3-azabicyclo[3.1.1]heptan-1-yl)amino]phenyl]piperidin-1-yl]acetyl]piperazin-1-yl]pyrimidin-5-yl]-3-[3-[[ethyl(methyl)sulfamoyl]amino]2,6-difluorobenzoyl]-1H-pyrrolo[2,3-b]pyridine; formic acid] are 6 nM and 7%.
